Test [1] addresses T1, Recombinant STAT6 protein (STAT6(W123-T658)) (Homo sapiens, UniProt P42226).
T1 construct: STAT6(W123-T658)
T1 sequence (P42226 123-658): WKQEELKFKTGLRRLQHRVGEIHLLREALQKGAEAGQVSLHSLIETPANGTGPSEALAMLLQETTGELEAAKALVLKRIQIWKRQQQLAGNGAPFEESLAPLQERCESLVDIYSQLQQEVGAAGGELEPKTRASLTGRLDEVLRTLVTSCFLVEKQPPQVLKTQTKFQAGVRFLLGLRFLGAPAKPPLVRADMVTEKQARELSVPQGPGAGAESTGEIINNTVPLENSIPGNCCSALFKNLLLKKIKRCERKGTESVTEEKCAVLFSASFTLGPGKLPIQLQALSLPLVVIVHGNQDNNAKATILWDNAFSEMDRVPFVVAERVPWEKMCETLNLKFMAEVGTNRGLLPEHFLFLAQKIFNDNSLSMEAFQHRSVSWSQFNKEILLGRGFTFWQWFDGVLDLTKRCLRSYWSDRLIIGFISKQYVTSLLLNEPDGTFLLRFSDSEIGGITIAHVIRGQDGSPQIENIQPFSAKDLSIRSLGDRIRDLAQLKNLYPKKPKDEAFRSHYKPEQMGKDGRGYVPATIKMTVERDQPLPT
The test is described as follows: STAT6 Fluorescence Polarization (FP) Assay. It counts as binding. The note with it: STAT6(W123-T658) 250 nM, probe 5-FAM-ApYKPFQDLI-NH2 2 nM, 45-minute incubation. In short, it runs like this: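 Competitive displacement of a fluorescent phosphotyrosine peptide (2 nM) from recombinant STAT6 W123-T658 (250 nM), 45 min at room temperature in 10 mM HEPES pH 7.4, 50 mM NaCl, 2 mM DTT. mP fitted against log compound for IC50, grouped A (≤300 nM) to D (>30 μM).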

In test [2] the target is T2, Recombinant STAT3 protein (STAT3(G127-I722)) (Homo sapiens, UniProt P40763).
T2 construct: STAT3(G127-I722)
T2 sequence (P40763 127-722, species assumed): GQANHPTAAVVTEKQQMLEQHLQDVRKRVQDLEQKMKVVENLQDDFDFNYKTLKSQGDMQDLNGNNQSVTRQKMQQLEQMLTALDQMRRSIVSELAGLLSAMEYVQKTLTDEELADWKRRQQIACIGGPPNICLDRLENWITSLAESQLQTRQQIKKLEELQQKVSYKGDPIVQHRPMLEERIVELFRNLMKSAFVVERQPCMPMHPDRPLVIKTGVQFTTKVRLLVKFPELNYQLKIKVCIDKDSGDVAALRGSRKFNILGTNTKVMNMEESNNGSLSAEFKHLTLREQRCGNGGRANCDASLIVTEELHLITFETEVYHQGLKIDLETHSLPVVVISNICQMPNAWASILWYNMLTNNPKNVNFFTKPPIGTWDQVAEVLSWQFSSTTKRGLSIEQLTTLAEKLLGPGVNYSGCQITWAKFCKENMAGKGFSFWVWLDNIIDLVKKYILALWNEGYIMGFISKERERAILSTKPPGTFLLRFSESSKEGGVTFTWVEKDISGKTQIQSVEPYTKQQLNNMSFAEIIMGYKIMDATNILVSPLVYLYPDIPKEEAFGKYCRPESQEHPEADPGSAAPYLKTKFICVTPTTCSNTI
The test is described as follows: STAT3 Fluorescence Polarization (FP) Assay. In kind it is binding. The note with it: STAT3(G127-I722) 25 nM, probe 5-FAM-GpYLPQTV-NH2 2 nM, 45-minute incubation. The procedure, abridged:
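Serially diluted compounds (1% DMSO) were mixed with 2 nM fluorescent phosphotyrosine peptide and 25 nM STAT3 construct G127-I722, pH 7.4, incubated 45 min at room temperature. IC50 values from fitted polarization curves are reported as categories A (≤100 nM), B, C, D (>10 μM).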
A general note: Polarisation of emitted light reports the rotation of a fluorescent probe.

Data on 15 molecules can be found in patent US20250215030A1, “STAT MODULATORS AND USES THEREOF” (Recludix Pharma, Inc., priority 2022, published 2025).

The structures appear in SMILES notation.

A word on the IC50: it is the concentration that gives 50% inhibition. Take `Cn1cnnc1C1CN(C(=O)[C@@H]2CC[C@@H]3C[C@H]4C[C@H]4C[C@H](NC(=O)c4cc5cc(C(F)P(=O)(O)O)ccc5s4)C(=O)N32)C1` (stereo partly drawn) [Example 304, (fluoro(2-(((3S,6S,7aS,8aR,9aR)-3-(3-(4-methyl-4H-1,2,4-triazol-3-yl)azetidine-1-carbonyl)-5-oxodecahydro-1H-cyclopropa[d]pyrrolo[1,2-a]azocin-6-yl)carbamoyl)benzo[b]thiophen-5-yl)methyl)phosphonic acid]: the IC50 in test [1] was 3 to 30 µM; in test [2] it was below 0.1 µM.

As to `O=C(N[C@H]1C[C@@H]2C[C@@H]2C[C@H]2CC[C@@H](C(=O)N3CC(c4ncccn4)C3)N2C1=O)c1cc2cc(C(F)P(=O)(O)O)ccc2s1` (stereo partly drawn) [Example 305, (fluoro(2-(((3S,6S,7aS,8aR,9aR)-5-oxo-3-(3-(pyrimidin-2-yl)azetidine-1-carbonyl)decahydro-1H-cyclopropa[d]pyrrolo[1,2-a]azocin-6-yl)carbamoyl)benzo[b]thiophen-5-yl)methyl)phosphonic acid], the IC50 was in the range of 3 to 30 µM in test [1] and 0.1 to 1 µM in test [2].

`O=C(N[C@H]1C[C@@H]2C[C@@H]2C[C@H]2CC[C@@H](C(=O)N3CC(c4ccon4)C3)N2C1=O)c1cc2cc(C(F)P(=O)(O)O)ccc2s1` (stereo partly drawn) [Example 312, (fluoro(2-(((3S,6S,7aS,8aR,9aR)-3-(3-(isoxazol-3-yl)azetidine-1-carbonyl)-5-oxodecahydro-1H-cyclopropa[d]pyrrolo[1,2-a]azocin-6-yl)carbamoyl)benzo[b]thiophen-5-yl)methyl)phosphonic acid]: the IC50 in test [1] is 3 to 30 µM; in test [2], below 0.1 µM.

In the case of `O=C(N[C@H]1C[C@H]2C[C@H]2C[C@H]2CC[C@@H](C(=O)N3CC[C@H](c4cnccc4F)C3)N2C1=O)c1cc2cc(C(F)P(=O)(O)O)ccc2s1` (stereo partly drawn) [Example 313, (fluoro(2-(((3S,6S,7aR,8aS,9aR)-3-((R)-3-(4-fluoropyridin-3-yl)pyrrolidine-1-carbonyl)-5-oxodecahydro-1H-cyclopropa[d]pyrrolo[1,2-a]azocin-6-yl)carbamoyl)benzo[b]thiophen-5-yl)methyl)phosphonic acid], the results for the IC50 in test [1] and in test [2] were 0.3 to 3 µM and below 0.1 µM, respectively.

On to `O=C(N[C@H]1C[C@H]2C[C@H]2C[C@H]2CC[C@@H](C(=O)N3CC(c4ncccn4)C3)N2C1=O)c1cc2cc(C(F)P(=O)(O)O)ccc2s1` (stereo partly drawn) [Example 317, (fluoro(2-(((3S,6S,7aR,8aS,9aR)-5-oxo-3-(3-(pyrimidin-2-yl)azetidine-1-carbonyl)decahydro-1H-cyclopropa[d]pyrrolo[1,2-a]azocin-6-yl)carbamoyl)benzo[b]thiophen-5-yl)methyl)phosphonic acid], for which the IC50 in test [1] is 3 to 30 µM; in test [2], below 0.1 µM.

As for `COc1ccncc1C1CN(C(=O)[C@@H]2CC[C@@H]3C[C@@H]4C[C@@H]4C[C@H](NC(=O)c4cc5cc(C(F)P(=O)(O)O)ccc5s4)C(=O)N32)C1` (stereo partly drawn) [Example 318, (fluoro(2-(((3S,6S,7aR,8aS,9aR)-3-(3-(4-methoxypyridin-3-yl)azetidine-1-carbonyl)-5-oxodecahydro-1H-cyclopropa[d]pyrrolo[1,2-a]azocin-6-yl)carbamoyl)benzo[b]thiophen-5-yl)methyl)phosphonic acid], the IC50 in test [1] is 3 to 30 µM; in test [2], below 0.1 µM.

In the case of `Cc1ccncc1C1CN(C(=O)[C@@H]2CC[C@@H]3C[C@@H]4C[C@@H]4C[C@H](NC(=O)c4cc5cc(C(F)P(=O)(O)O)ccc5s4)C(=O)N32)C1` (stereo partly drawn) [Example 320, (fluoro(2-(((3S,6S,7aR,8aS,9aR)-3-(3-(4-methylpyridin-3-yl)azetidine-1-carbonyl)-5-oxodecahydro-1H-cyclopropa[d]pyrrolo[1,2-a]azocin-6-yl)carbamoyl)benzo[b]thiophen-5-yl)methyl)phosphonic acid], the IC50 is 3 to 30 µM in test [1] and below 0.1 µM in test [2].

With `O=C(N[C@H]1C[C@@H]2C[C@@H]2C[C@H]2CC[C@@H](C(=O)N3CC(c4ncco4)C3)N2C1=O)c1cc2cc(C(F)P(=O)(O)O)ccc2s1` (stereo partly drawn) [Example 322, (fluoro(2-(((3S,6S,7aS,8aR,9aR)-3-(3-(oxazol-2-yl)azetidine-1-carbonyl)-5-oxodecahydro-1H-cyclopropa[d]pyrrolo[1,2-a]azocin-6-yl)carbamoyl)benzo[b]thiophen-5-yl)methyl)phosphonic acid], the IC50 in test [1] was 3 to 30 µM; in test [2], below 0.1 µM.

Take `Cc1cnc(C2CN(C(=O)[C@@H]3CC[C@@H]4C[C@H]5C[C@H]5C[C@H](NC(=O)c5cc6cc(C(F)P(=O)(O)O)ccc6s5)C(=O)N43)C2)o1` (stereo partly drawn) [Example 324, (fluoro(2-(((3S,6S,7aS,8aR,9aR)-3-(3-(5-methyloxazol-2-yl)azetidine-1-carbonyl)-5-oxodecahydro-1H-cyclopropa[d]pyrrolo[1,2-a]azocin-6-yl)carbamoyl)benzo[b]thiophen-5-yl)methyl)phosphonic acid]: the IC50 was in the range of 3 to 30 µM in test [1] and 0.1 to 1 µM in test [2].

In the case of `Cc1noc(C2CN(C(=O)[C@@H]3CC[C@@H]4C[C@H]5C[C@H]5C[C@H](NC(=O)c5cc6cc(C(F)P(=O)(O)O)ccc6s5)C(=O)N43)C2)n1` (stereo partly drawn) [Example 326, (fluoro(2-(((3S,6S,7aS,8aR,9aR)-3-(3-(3-methyl-1,2,4-oxadiazol-5-yl)azetidine-1-carbonyl)-5-oxodecahydro-1H-cyclopropa[d]pyrrolo[1,2-a]azocin-6-yl)carbamoyl)benzo[b]thiophen-5-yl)methyl)phosphonic acid], the IC50 lay within 3 to 30 µM in test [1] and 0.1 to 1 µM in test [2].

On to `Cc1nnc(C2CN(C(=O)[C@@H]3CC[C@@H]4C[C@H]5C[C@H]5C[C@H](NC(=O)c5cc6cc(C(F)P(=O)(O)O)ccc6s5)C(=O)N43)C2)o1` (stereo partly drawn) [Example 327, (fluoro(2-(((3S,6S,7aS,8aR,9aR)-3-(3-(5-methyl-1,3,4-oxadiazol-2-yl)azetidine-1-carbonyl)-5-oxodecahydro-1H-cyclopropa[d]pyrrolo[1,2-a]azocin-6-yl)carbamoyl)benzo[b]thiophen-5-yl)methyl)phosphonic acid], for which the figures for the IC50 in test [1] and in test [2] were 3 to 30 µM and 0.1 to 1 µM, respectively.

Turning to `Cc1cc(C2CN(C(=O)[C@@H]3CC[C@@H]4C[C@H]5C[C@H]5C[C@H](NC(=O)c5cc6cc(C(F)P(=O)(O)O)ccc6s5)C(=O)N43)C2)on1` (stereo partly drawn) [Example 328, (fluoro(2-(((3S,6S,7aS,8aR,9aR)-3-(3-(3-methylisoxazol-5-yl)azetidine-1-carbonyl)-5-oxodecahydro-1H-cyclopropa[d]pyrrolo[1,2-a]azocin-6-yl)carbamoyl)benzo[b]thiophen-5-yl)methyl)phosphonic acid], the IC50 in test [1] lay in the range of 3 to 30 µM; in test [2], 0.1 to 1 µM.

In the case of `NC(=O)N1C[C@H](NC(=O)[C@@H]2CC[C@@H]3C[C@H]4C[C@H]4C[C@H](NC(=O)c4cc5cc(C(F)P(=O)(O)O)ccc5s4)C(=O)N32)[C@@H](F)C1` (stereo partly drawn) [Example 330, ((2-(((3S,6S,7aS,8aR,9aR)-3-(((3S,4S)-1-carbamoyl-4-fluoropyrrolidin-3-yl)carbamoyl)-5-oxodecahydro-1H-cyclopropa[d]pyrrolo[1,2-a]azocin-6-yl)carbamoyl)benzo[b]thiophen-5-yl)fluoromethyl)phosphonic acid], the results for the IC50 in test [1] and in test [2] were 0.3 to 3 µM and below 0.1 µM, respectively.

Turning to `Cn1cnnc1C1CN(C(=O)[C@@H]2CC[C@@H]3C[C@@H]4C[C@@H]4C[C@H](NC(=O)c4cc5cc(C(F)P(=O)(O)O)ccc5s4)C(=O)N32)C1` (stereo partly drawn) [Example 331, (fluoro(2-(((3S,6S,7aR,8aS,9aR)-3-(3-(4-methyl-4H-1,2,4-triazol-3-yl)azetidine-1-carbonyl)-5-oxodecahydro-1H-cyclopropa[d]pyrrolo[1,2-a]azocin-6-yl)carbamoyl)benzo[b]thiophen-5-yl)methyl)phosphonic acid], the IC50 in test [1] was 3 to 30 µM; in test [2], below 0.1 µM.

Turning to `CS(=O)(=O)CC1CN(C(=O)[C@@H]2CC[C@@H]3C[C@H]4C[C@H]4C[C@H](NC(=O)c4cc5cc(C(F)P(=O)(O)O)ccc5s4)C(=O)N32)C1` (stereo partly drawn) [Example 333, (fluoro(2-(((3S,6S,7aS,8aR,9aR)-3-(3-((methylsulfonyl)methyl)azetidine-1-carbonyl)-5-oxodecahydro-1H-cyclopropa[d]pyrrolo[1,2-a]azocin-6-yl)carbamoyl)benzo[b]thiophen-5-yl)methyl)phosphonic acid], the figures for the IC50 in test [1] and in test [2] were 3 to 30 µM and below 0.1 µM, respectively.
